Data as given in patent publication US12545668B2, “Cyclic amine derivative as agent for promoting advillin function, and novel cyclic amine derivative and pharmaceutical use thereof” (Toray Industries, Inc., priority 2018, dated 2026).

The compounds below were run on F11 cells (rat dorsal root ganglion neuron cell line) (assay: Effect of decreasing intracellular actin filaments in F11 cells with oxaliplatin-induced axonal injury (phalloidin staining)). Settings: F-11 rat/mouse fusion cell line, F11, 120 h, compound 10 μM with oxaliplatin 15 μM, 5 days; compared to oxaliplatin alone treated group; average of five samples; read-out: Decreasing Rate of Intracellular Actin Filament (%).
Type: cell-based
Description: The effect of the cyclic amine derivative (I) or a pharmacologically acceptable salt thereof on the amount of intracellular actin filaments in F11 cells (rat dorsal root ganglion neuron cell line) was examined.
As test compounds, the compounds of Examples 1, 2, 3, 4, 5, 6, 7, 8, and 9 were used.
As compounds of comparative examples, 1-(4-(dimethylamino)piperidin-1-yl)-3-(1-ethyl-1H-imidazol-2-yl)-3-hydroxypropan-1-one (hereinafter, the compound of Comparative Example 1), 1-(4-(dimethylamino)piperidin-1-yl)-3-hydroxy-3-(1-(2,2,2-trifluoroethyl)-1H-imidazol-2-yl)propan-1-one (hereinafter, the compound of Comparative Example 2), 1-((R)-3-(dimethylamino)pyrrolidin-1-yl)-3-hydroxy-3-(1-methyl-1H-imidazol-2-yl)propan-1-one (hereinafter, the compound of Comparative Example 3), and 1-((R)-[…]-3-hydroxy-3-(1-methyl-1H-imidazol-2-yl)propan-1-one (hereinafter, the compound of Comparative Example 4) shown in Table 4 were used. The compounds of Comparative Examples 1, 2, 3, and 4 were synthesized in accordance with methods described in International Publication No. WO2016/136944.
For peeling the F11 cells off from a culture flask, 0.25% Trypsin/EDTA (manufactured by Thermo Fisher Scientific K.K.) was added to the cells, followed by incubation at room temperature for several minutes. Thereafter, 10% fetal bovine serum-containing DMEM medium (manufactured by Thermo Fisher Scientific K.K.) was added thereto for suspension, and the resultant centrifuged at 1,500 rpm for 1 minute. After removing the resultant centrifugal supernatant, 0.5% fetal bovine serum-containing DMEM medium was added thereto for suspending cells therein, and the resultant seeded in a poly-D-lysine-coated 96 well plate (manufactured by BD Biosciences) coated with laminin (2 μg/cm^2, manufactured by Sigma Aldrich) to be cultured at 37° C. under an environment of 5% CO2. Two hours after seeding the cells, N,N-dibutyladenosine 3′,5′-phosphate (final concentration 1 mM, manufactured by Sigma Aldrich) and recombinant rat GDNF (final concentration 50 ng/mL, manufactured by PeproTech) were added thereto to culture the cells at 37° C. under an environment of 5% CO2 for 7 days for differentiation.
Seven days after starting the culture, the medium was exchanged with 0.5% fetal bovine serum-containing DMEM medium containing oxaliplatin (final concentration 15 μM), and the resultant cultured for 5 days to induce axonal injury. Each of the compounds of Examples and Comparative Examples was caused to be contained in the medium (final concentration 10 μM) for treatment in the same manner as oxaliplatin.
Five days after treatment with oxaliplatin and each of the compounds, the resultant cells were washed with PBS(−) three times, a 4% paraformaldehyde-phosphate buffer (manufactured by Wako Pure Chemical Industries Ltd.) was added thereto, and the resultant allowed to stand still at room temperature for 10 minutes to fix the cells. Acti-stain 670 phalloidin (manufactured by Cytoskeleton Inc.) was added thereto, and the resultant incubated at room temperature for 30 minutes to stain actin filaments. An image of the cells was acquired using IN Cell Analyzer 2200 (manufactured by GE Healthcare), and the image analyzed using IN Cell Investigator Developer Toolbox. The amount of intracellular actin filaments was indicated by the amount of fluorescence (density) of fluorescent-labeled phalloidin binding to the actin filaments.
In a group treated with oxaliplatin alone (hereinafter, the oxaliplatin alone treated group), the amount of intracellular actin filaments increased by 5% compared to that in a group not treated with oxaliplatin. […] A decreasing rate of intracellular actin filaments, caused by each compound compared to the amount of intracellular actin filaments of the oxaliplatin alone treated group was calculated. […]

Question: How did the inhibition at 10 µM turn out when `CN(C)C1CCN(C(=O)CC(O)c2nccn2CC(F)(F)F)CC1` (stereo not shown) [Comparative Example 2, 1-(4-(dimethylamino)piperidin-1-yl)-3-hydroxy-3-(1-(2,2,2-trifluoroethyl)-1H-imidazol-2-yl)propan-1-one, reference compound] was run?
Answer: Its inhibition at 10 µM is no more than 5%.

Question: How did the inhibition at 10 µM turn out when `CN(C)[C@@H]1CCCN(C(=O)CC(O)c2nccn2C)C1` (stereo partly shown) [Comparative Example 4, reference compound] was run?
Answer: The inhibition at 10 µM was no more than 5%.

Question: Which inhibition at 10 µM does the source give for `Cn1ccnc1C(O)CC(=O)N1CCC(N2CCOCC2)CC1` (stereo not shown) [Example 1, 3-hydroxy-3-(1-methyl-1H-imidazol-2-yl)-1-(4-morpholinopiperidin-1-yl)propan-1-one] here?
Answer: The inhibition at 10 µM was no less than 5%.

Question: `CC(C)n1ccnc1C(O)CC(=O)N1CCC(N(C)C)CC1` (stereo not shown) [Example 3, 1-(4-(dimethylamino)piperidin-1-yl)-3-(1-isopropyl-1H-imidazol-2-yl)-3-hydroxypropan-1-one] was tested. Which inhibition at 10 µM did it give?
Answer: The inhibition at 10 µM was no less than 5%.

Question: `CN(C)C1CCN(C(=O)CC(O)c2ncc(Cl)n2C)CC1` (stereo not shown) [Example 4, 3-(5-chloro-1-methyl-1H-imidazol-2-yl)-1-(4-(dimethylamino)piperidin-1-yl)-3-hydroxypropan-1-one] was tested. Which inhibition at 10 µM did it give?
Answer: The inhibition at 10 µM was no less than 5%.

Question: Which inhibition at 10 µM does the source give for `COCCn1ccnc1C(O)CC(=O)N1CCC(N(C)C)CC1` (stereo not shown) [Example 5, 1-(4-(dimethylamino)piperidin-1-yl)-3-(1-(2-methoxyethyl)-1H-imidazol-2-yl)-3-hydroxypropan-1-one] here?
Answer: Its inhibition at 10 µM is no less than 5%.

Question: With `CN(C)C1CCN(C(=O)CC(O)c2nccn2CCC(F)(F)F)CC1` (stereo not shown) [Example 6, 1-(4-(dimethylamino)piperidin-1-yl)-3-(1-(3,3,3-trifluoropropyl)-1H-imidazol-2-yl)-3-hydroxypropan-1-one] as the compound, how does the inhibition at 10 µM read?
Answer: Its inhibition at 10 µM is no less than 5%.

Question: How did the inhibition at 10 µM turn out when `CN1CCN(C2CCN(C(=O)CC(O)c3nccn3C)CC2)CC1` (stereo not shown) [Example 8, 3-hydroxy-3-(1-methyl-1H-imidazol-2-yl)-1-(4-(4-methylpiperazin-1-yl)piperidin-1-yl)propan-1-one] was run?
Answer: Its inhibition at 10 µM is no less than 5%.

Same assay, conditions: oxaliplatin alone 15 μM, 5 days; p<0.05

Question: For `O=C1[O][Pt]2([NH][C@@H]3CCCC[C@H]3[NH]2)[O]C1=O` [oxaliplatin, reference compound], which “increase of the amount of intracellular actin filaments compared to a group not treated with oxaliplatin” value is on record?
Answer: The value was 5%.

These compounds were tested on primary cultured cells of rat dorsal root ganglion (assay: Axon (neurite) extension in primary cultured cells of rat dorsal root ganglion with oxaliplatin-induced axonal injury). Settings: oxaliplatin alone 3 μM, 7 days; p<0.05.
Type: cell-based
Description: The effect of the cyclic amine derivative (I) or a pharmacologically acceptable salt thereof on neurite extension in primary cultured cells of rat dorsal root ganglion was examined.
Male SD rats (manufactured by Charles River Laboratories Japan, Inc.) of 4 to 7 weeks old were used. Each rat was anesthetized by intraperitoneally administering urethane. After confirming that the rat was anesthetized, the rat was rapidly euthanized by exsanguination from the abdominal aorta. After incision of the dorsal part, the spinal column was excised and cooled on ice. The dorsal side of the spinal column was cut off, and the spinal cord was removed from the ventral side of the spinal column to expose the dorsal root ganglia on the ventral side of the spinal column. The dorsal root ganglia (L3 to 6, right and left) were excised with tweezers, and dipped in ice-cold Leibovitz's L-15 medium (manufactured by Thermo Fisher Scientific), and the bundles of nerve fibers were removed under a stereoscopic microscope. The dorsal root ganglia from which the bundles of nerve fibers had been removed were made fine slits with ophthalmic scissors to be used as dorsal root ganglion pieces.
The dorsal root ganglion pieces were dipped in about 3 mL of a solution of collagenase A (manufactured by Roche Molecular Systems, Inc.), followed by incubation at 37° C. for 20 minutes. After the incubation, the resultant was centrifuged at 200×g at 25° C. for 5 minutes to remove a collagenase A solution corresponding to the supernatant. About 1 mL of a solution of trypsin was added thereto, followed by incubation at 37° C. for 5 minutes. Subsequently, about 3 mL of DMEM (manufactured by Thermo Fisher Scientific K.K.) containing 10% fetal bovine serum was added to the resultant, the resultant centrifuged at 200×g at room temperature for 5 minutes, and then the supernatant removed. […]

Question: For `O=C1[O][Pt]2([NH][C@@H]3CCCC[C@H]3[NH]2)[O]C1=O` [oxaliplatin, reference compound], which “length of a neurite compared to the non-treated group” value is on record?
Answer: The value was “significantly reduced”.
